Measurements from US20100267629A1, “Enterostatin as Therapeutic Agent for Hypoglycemia” (Board of Supervisors of Louisiana State University and …, priority 2006, published 2010).

What was measured:
[1] = indirect calorimetry; cited from earlier work
[2] = system: SK-N-MC neuroepithelioma cells; conditions: cited from earlier work
[3] = system: rabbits; conditions: single-choice diet; cited from earlier work
[4] = system: AMPK; assay: pAMPK Western blot in HepG2 cells, 60 min incubation; assay type: cell-based, human; conditions: HepG2, one hour incubation
Protocol: (§1) In a second experiment, human liver cells (HepG2 cell line, American Type Culture Collection, Manassas, Va.) were grown and maintained in Dulbecco's modified eagle's medium (Gibco, Carlsbad, Calif.) containing 10% fetal bovine serum, penicillin (100 I.U./ml), and streptomycin (100 μg/ml). The cells were then incubated for 60 min with 5 mM glucose and various concentrations of enterostatin (0.001, 0.01, 0.03, 0.1, 1.0 μM). After incubation, the cells were lysed and the cytosolic proteins subjected to Western blot analysis for pAMPK and PKARIIβ.

[5] = target: T1, beta subunit of ATP synthase (Homo sapiens, UniProt P06576); conditions: receptor protein on liver plasma membranes; cited from earlier work
T1 construct: from tissue; host or cells: liver plasma membranes

[6] = system: PKARIIβ; assay: PKARIIβ Western blot in HepG2 cells, 60 min incubation; assay type: cell-based, human; conditions: HepG2, one hour incubation
Protocol: as §1

[7] = target: brain membrane preparation; conditions: low affinity binding; cited from earlier work
[8] = system: humans; conditions: cited from earlier work
[9] = system: galanin receptors; conditions: cited from earlier work
[10] = system: AMPK; assay: pAMPK Western blot in HepG2 cells, 15 min incubation; assay type: cell-based, human
Protocol: Human liver cells (HepG2 cell line, American Type Culture Collection, Manassas, Va.) were grown and maintained in Dulbecco's modified eagle's medium (Gibco, Carlsbad, Calif.) containing 10% fetal bovine serum, penicillin (100 I.U./ml), and streptomycin (100 μg/ml). The cells were then incubated for 15 min with 5 mM glucose and various concentrations of enterostatin (0.003, 0.01, 0.1, 1, and 3 μM) and/or of its antagonist β-casomorphin (BCM) (0.003, 0.01, 0.1, 1, and 3 μM). After incubation, the cells were lysed and the cytosolic proteins subjected to Western blot analysis for AMPK and pAMPK. The results for pAMPK activity are shown in FIG. 5A (enterostatin) and FIG. 5B (BCM). […] This effect was blocked by the presence of an antibody to the enterostatin receptor (anti F1-ATPase beta subunit).

[11] = system: C57B1/6 male mice; assay: Fasting blood glucose after enterostatin injection; assay type: in vivo, mouse
Protocol: Animals: C57B1/6 male mice were purchased from The Jackson Laboratory (Bar Harbor, Me.) at 6 weeks of age. The mice were initially housed in groups of three in acrylic cages in a room with a 12-hour light/dark cycle and with controlled temperature (22 to 23° C.) and with free access to water. The mice were fed a high fat diet (4.78 kcal/g, 56% energy as fat; Research Diets Inc, Brunswick, N.J.). The composition of the diet has been previously described (15). Body weights were measured three time per week. At 8 weeks of age, the mice were switched to single housing.
Peptide Injections: Enterostatin was dissolved in 0.1 ml saline (0.9% NaCl w/v), and given as a single dose of either 5 μg or 25 μg/mouse. Either enterostatin or saline (control) was injected intraperitoneally. In the experiments involving insulin, insulin (0.75 mU/g body weight) or saline (0.1 ml/10 g body weight; control) was injected intraperitoneally.
Enterostatin Effect on Fasting Blood Glucose. To directly test the effect of enterostatin on blood glucose, mice were fasted for 18 hours, and enterostatin (25 μg/mouse) or 0.1 ml saline vehicle was injected intraperitoneally at zero time. Blood samples were taken from the tail vein at 15, 30, 45 and 60 min after enterostatin injection. The blood samples were assayed for glucose using a glucometer.

[12] = target: kappa-opioid receptors (Homo sapiens, UniProt P41145); conditions: cited from earlier work
[13] = system: baboons; conditions: single-choice diet; cited from earlier work
[14] = system: islet cells; conditions: cited from earlier work
[15] = system: AMPK; assay: In vivo AMPK activity, Western blot of liver and hypothalamus; set-up: species or system mouse
Protocol: A separate set of mice (n=6/group) were fasted overnight (18 hours) before injection with either saline vehicle (0.1 ml) or enterostatin (5 or 25 ug/mouse) intraperitoneally. The mice were sacrificed by cervical dislocation either at 30 min (certain enterostatin-treated groups) or 60 min (both certain enterostatin- and vehicle-treated groups) after the injection. The tissues of liver and hypothalamus were rapidly dissected and frozen in liquid nitrogen. The tissues were stored at −80 C before processing for AMPK activity. For AMPK activity, the tissues were unfrozen, the cells lysed, and the cytosolic proteins subjected to Western blot analysis for AMPK and pAMPK activity.

[16] = target: T2, Neuropeptide Y1 receptors (Homo sapiens, UniProt P25929); conditions: cited from earlier work
T2 sequence (P25929 1-384): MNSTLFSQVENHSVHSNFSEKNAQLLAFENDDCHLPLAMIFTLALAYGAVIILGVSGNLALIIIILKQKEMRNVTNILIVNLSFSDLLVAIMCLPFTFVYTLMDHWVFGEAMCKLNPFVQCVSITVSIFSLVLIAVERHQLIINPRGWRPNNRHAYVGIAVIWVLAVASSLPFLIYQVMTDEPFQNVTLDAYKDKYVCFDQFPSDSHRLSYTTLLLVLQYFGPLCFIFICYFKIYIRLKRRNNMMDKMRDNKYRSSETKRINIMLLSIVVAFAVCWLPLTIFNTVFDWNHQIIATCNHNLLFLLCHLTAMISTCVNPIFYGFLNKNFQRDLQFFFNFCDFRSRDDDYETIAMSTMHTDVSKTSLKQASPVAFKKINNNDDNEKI

T1 sequence (P06576 48-529): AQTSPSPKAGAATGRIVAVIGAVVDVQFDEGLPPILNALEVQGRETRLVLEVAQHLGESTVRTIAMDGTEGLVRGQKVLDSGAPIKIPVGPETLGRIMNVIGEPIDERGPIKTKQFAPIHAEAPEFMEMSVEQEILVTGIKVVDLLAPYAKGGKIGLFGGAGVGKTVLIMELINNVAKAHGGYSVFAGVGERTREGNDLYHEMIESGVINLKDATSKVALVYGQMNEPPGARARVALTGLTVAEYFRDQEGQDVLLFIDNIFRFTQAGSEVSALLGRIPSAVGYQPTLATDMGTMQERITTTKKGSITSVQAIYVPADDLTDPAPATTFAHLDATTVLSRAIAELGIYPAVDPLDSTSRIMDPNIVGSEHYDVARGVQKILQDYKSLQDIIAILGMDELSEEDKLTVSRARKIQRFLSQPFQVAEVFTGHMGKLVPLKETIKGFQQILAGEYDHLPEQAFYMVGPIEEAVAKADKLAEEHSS
T1 sequence (P25705 44-553 partner): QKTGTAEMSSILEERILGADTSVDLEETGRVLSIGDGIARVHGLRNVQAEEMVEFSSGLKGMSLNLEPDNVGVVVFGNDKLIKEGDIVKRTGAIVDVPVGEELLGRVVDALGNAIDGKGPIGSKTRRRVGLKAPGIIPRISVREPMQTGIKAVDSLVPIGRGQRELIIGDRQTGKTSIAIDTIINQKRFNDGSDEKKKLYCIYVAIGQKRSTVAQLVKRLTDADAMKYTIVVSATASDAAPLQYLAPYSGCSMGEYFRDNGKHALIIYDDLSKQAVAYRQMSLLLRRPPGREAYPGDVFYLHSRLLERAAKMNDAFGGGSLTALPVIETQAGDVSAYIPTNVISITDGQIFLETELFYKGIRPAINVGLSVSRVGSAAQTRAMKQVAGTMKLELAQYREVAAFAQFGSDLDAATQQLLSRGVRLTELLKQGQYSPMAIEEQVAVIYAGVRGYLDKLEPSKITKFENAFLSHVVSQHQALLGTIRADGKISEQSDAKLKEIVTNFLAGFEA
T1 sequence (P36542 26-298 partner): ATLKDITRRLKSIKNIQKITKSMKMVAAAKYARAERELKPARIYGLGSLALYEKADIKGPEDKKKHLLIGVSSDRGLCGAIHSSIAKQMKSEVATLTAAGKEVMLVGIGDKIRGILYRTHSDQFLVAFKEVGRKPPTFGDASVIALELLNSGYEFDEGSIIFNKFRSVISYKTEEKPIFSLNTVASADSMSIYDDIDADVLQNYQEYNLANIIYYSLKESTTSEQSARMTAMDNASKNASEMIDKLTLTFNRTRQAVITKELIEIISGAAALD
T1 sequence (P30049 23-168 partner): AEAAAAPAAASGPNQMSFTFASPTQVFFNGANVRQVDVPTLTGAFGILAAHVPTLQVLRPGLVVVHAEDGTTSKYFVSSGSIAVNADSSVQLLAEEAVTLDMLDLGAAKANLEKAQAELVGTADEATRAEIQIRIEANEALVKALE
T1 sequence (P56381 2-51 partner limits assumed): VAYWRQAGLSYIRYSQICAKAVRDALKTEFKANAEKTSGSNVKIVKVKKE
kappa-opioid receptors, sequence (P41145 whole entry): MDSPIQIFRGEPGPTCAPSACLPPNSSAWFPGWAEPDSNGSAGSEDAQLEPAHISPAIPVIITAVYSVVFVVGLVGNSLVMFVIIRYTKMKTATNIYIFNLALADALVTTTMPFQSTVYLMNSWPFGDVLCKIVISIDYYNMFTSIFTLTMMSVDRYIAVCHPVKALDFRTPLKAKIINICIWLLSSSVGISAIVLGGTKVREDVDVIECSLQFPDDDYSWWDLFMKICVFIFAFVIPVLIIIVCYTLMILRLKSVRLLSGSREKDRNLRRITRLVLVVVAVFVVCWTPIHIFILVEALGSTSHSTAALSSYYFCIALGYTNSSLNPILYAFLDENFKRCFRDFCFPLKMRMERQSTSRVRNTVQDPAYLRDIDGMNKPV

Enterostatin: aminoterminal pentapeptide of procolipase released when procolipase is converted into colipase (VPDPR; printed: Val-Pro-Asp-Pro-Arg)
Fat oxidation [1]: enhance fat oxidation
Kd [2]: 0.04 µM
Food intake [3]: reduce food intake
Dose of peak effect on pAMPK [4]: 0.01 μM
pAMPK levels ([4]; 5 mM glucose): increase in pAMPK levels
Kd [5]: 0.0025 µM
Dose of peak increase in PKARIIβ [6]: 10 nM
PKARIIβ ([6]; 5 mM glucose): increase in PKARIIβ
Kd [7]: 0.23 µM
Food intake [8]: not been found to reduce food intake
Subjective feeling of hunger ([8]; intravenous injection): reduce the subjective feeling of hunger
Binding [9]: not to bind
Effect on pAMPK in presence of antibody anti F1-ATPase beta subunit ([10]; HepG2, 15 min, 5 mM glucose): blocked
AMPkinase activity shown by pAMPK ([10]; HepG2, 15 min, 5 mM glucose, 0.003-3 μM): inhibited AMPkinase
β-casomorphin stimulation of pAMPK levels ([10]; HepG2, enterostatin 0.01, 0.1 and 1.0 uM with β-casomorphin): reversed dose-dependently
Blood glucose levels compared to saline control ([11]; 25 μg/mouse ip, 18 h fasted): rapid increase in blood glucose levels
Increase in blood glucose versus saline vehicle ([11]; 25 μg/mouse ip, at 15 and 30 min): significantly greater
Duration of raised glucose levels after injection ([11]; injection into mice): remained high for up to an hour after injection
Time to increase in blood glucose levels after injection ([11]; injection into mice): ≤ 15 min
Binding [12]: not to bind
Food intake [13]: reduce food intake
Insulin secretion stimulated by glybenclamide ([14]; glybenclamide 5.0 and 10 μM): inhibited insulin secretion
Intracellular cyclic AMP content ([14]; increase produced by U50,488 100 nM): reduced the increase in intracellular cyclic AMP content
Insulin secretion ([14]; islets, 16.7 mM glucose, 10^−9 to 10^−5 M, dose-dependent): inhibited insulin secretion
Doses inhibiting insulin secretion ([14]; isolated pancreatic islets): 10^−10 to 10^−6 M
Insulin secretion stimulated by U50,488 ([14]; kappa-opioid agonist U50,488 100 nM): inhibited insulin secretion
Insulin secretion stimulated by TPA ([14]; phorbol 12-myristate-13-acetate 50 and 100 nM): inhibited insulin secretion
Hypothalamic pAMPK ([15]; 5 or 25 μg/mouse ip): unaltered
Total AMPK ([15]; 5 or 25 μg/mouse ip): unaffected
Liver pAMPK levels ([15]; 30 and 60 min after ip injection, even at lower dose (5 μg/mouse)): reduced
Binding [16]: not to bind
